The results in this text go back to patent US20250145606A1 (Arcus Biosciences, Inc., priority 2023, published 2025).

Experiment [1] addresses PDGFRβ (Homo sapiens (Human), UniProt P09619). Briefly: Inhibition of PDGFRβ kinase activity (HTRF KinEASE-TK). The settings on record: biochemical, HTRF KinEASE-TK. In outline: (§1)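 Recombinant kinases (2 nM CSF1R and c-Kit, 10 nM PDGFRα/β, 2× working) preincubated 1 h with compound in 50 mM HEPES pH 7.4, 5 mM MgCl2 (c-Kit) or 10 mM (others), 2 mM MnCl2; 2× ATP: c-Kit 16 μM, PDGFRα 1 μM, PDGFRβ 40 μM, CSF1R 20 μM. 120 min reaction at rt; TR-FRET 665/620 nm; IC50 by 4-parameter fit.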
Background: TR-FRET usually uses a lanthanide donor and a delayed reading to cut background.

For experiment [2], the target named is CSF1R (Homo sapiens (Human), UniProt P07333). The experiment can be described thus: Inhibition of CSF1R kinase activity (HTRF KinEASE-TK). The note with it: biochemical, HTRF KinEASE-TK. In a few lines: as §1
Experiment [3] deals with c-Kit (Homo sapiens (Human), UniProt P10721). Briefly: Inhibition of c-Kit kinase activity (HTRF KinEASE-TK). The class given is biochemical. The note with it: biochemical, HTRF KinEASE-TK. In outline:
as §1

In experiment [4] the target is FLT3 (Homo sapiens (Human), UniProt P36888). Briefly: Inhibition of FLT3 kinase activity (HTRF KinEASE-TK). The experiment is classed as biochemical. The note with it: biochemical, HTRF KinEASE-TK. In a few lines:
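FLT3 tyrosine kinase activity was measured with the HTRF KinEASE-TK kit by following phosphorylation of a biotinylated TK peptide. After the 45 min reaction, 10 μL of detection mix was added: 0.2 μM (2×) Streptavidin-XL665 and 2 μM (2×) TK-Antibody-Cryptate in detection buffer. After 60 min, TR-FRET was read on an Envision as the 665 nm/620 nm emission ratio with 320 nm excitation.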

For experiment [5], the system named is Phospho-KIT (Y703) in M07e cells. The experiment can be described thus: Phospho-KIT (Y703) cellular assay in M07e cells. The experiment is classed as cell-based. The note with it: read-out: M07e Cell IC50. In a few lines: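 Serum-starved M07e cells preincubated 50 min at 37° C with 11-point half-log compound titration, then stimulated 10 min with SCF at 90.9 ng/mL final. Fixed, permeabilized cells stained for phospho-KIT Y703 and read by flow cytometry (live-gated geometric mean); IC50 by 4-parameter fit normalized to DMSO and positive control.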

For experiment [6], the target named is PDGFRα (Homo sapiens (Human), UniProt P16234). Briefly: Inhibition of PDGFRα kinase activity (HTRF KinEASE-TK). The settings on record: biochemical, HTRF KinEASE-TK. In outline: as §1
The mark [7] stands for this setting: M-07e, Phospho-KIT (Y703), M07e cells.

The structures appear in SMILES notation. Read-outs that look alike come from different tables or passages of the source.

PDGFRα, sequence (P16234 24-1089): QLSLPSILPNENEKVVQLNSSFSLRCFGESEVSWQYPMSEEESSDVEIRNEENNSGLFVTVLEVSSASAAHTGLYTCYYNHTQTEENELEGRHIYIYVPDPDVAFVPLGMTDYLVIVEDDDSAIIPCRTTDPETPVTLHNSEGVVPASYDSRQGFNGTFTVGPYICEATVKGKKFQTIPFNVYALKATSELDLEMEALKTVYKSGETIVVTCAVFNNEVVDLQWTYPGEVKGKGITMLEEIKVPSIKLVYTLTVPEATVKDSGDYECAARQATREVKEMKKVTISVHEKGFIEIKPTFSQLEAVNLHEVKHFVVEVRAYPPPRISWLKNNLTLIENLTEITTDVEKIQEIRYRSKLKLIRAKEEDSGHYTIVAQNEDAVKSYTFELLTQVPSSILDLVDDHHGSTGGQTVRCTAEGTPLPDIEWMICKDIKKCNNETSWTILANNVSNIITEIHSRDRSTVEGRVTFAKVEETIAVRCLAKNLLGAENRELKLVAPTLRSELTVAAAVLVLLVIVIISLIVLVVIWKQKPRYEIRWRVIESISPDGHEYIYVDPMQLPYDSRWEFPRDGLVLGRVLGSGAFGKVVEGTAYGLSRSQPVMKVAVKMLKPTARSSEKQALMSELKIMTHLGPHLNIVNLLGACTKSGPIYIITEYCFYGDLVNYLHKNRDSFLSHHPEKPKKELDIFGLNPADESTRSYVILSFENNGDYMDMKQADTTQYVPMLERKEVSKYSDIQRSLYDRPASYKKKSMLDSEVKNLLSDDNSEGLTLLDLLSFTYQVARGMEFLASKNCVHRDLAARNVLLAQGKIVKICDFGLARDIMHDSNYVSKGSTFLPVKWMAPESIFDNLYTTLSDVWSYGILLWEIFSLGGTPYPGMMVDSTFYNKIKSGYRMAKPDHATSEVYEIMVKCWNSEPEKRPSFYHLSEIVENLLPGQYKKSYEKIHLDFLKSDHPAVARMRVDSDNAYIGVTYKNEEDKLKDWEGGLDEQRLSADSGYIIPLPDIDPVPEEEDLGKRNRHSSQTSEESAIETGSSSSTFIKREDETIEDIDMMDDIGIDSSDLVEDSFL
CSF1R, sequence (P07333 20-972): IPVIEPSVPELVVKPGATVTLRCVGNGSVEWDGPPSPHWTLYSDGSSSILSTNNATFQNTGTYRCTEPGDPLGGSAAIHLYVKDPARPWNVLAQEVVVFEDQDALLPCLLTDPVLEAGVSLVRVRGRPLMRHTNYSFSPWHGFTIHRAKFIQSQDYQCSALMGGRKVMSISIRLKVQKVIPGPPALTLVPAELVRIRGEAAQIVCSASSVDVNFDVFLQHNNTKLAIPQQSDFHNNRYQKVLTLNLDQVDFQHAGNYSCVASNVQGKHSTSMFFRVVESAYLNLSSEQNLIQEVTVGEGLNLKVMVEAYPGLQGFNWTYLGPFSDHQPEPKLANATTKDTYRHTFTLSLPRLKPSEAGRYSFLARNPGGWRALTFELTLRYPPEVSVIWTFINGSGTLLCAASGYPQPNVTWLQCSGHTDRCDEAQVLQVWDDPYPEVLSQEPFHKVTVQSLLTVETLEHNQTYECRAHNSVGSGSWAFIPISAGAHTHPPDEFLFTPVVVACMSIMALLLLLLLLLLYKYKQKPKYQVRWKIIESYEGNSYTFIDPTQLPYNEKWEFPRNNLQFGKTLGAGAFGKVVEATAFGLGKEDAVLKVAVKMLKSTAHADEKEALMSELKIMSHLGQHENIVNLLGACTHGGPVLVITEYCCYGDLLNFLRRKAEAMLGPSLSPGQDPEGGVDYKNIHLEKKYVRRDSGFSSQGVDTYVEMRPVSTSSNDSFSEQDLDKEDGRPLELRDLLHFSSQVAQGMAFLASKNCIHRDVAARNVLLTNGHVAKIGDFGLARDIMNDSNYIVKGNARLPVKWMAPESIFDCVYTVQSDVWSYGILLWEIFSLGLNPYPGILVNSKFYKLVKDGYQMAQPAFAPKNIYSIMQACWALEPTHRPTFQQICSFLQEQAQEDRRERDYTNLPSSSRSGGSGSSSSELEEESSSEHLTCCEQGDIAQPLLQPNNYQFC
FLT3, sequence (P36888 27-993): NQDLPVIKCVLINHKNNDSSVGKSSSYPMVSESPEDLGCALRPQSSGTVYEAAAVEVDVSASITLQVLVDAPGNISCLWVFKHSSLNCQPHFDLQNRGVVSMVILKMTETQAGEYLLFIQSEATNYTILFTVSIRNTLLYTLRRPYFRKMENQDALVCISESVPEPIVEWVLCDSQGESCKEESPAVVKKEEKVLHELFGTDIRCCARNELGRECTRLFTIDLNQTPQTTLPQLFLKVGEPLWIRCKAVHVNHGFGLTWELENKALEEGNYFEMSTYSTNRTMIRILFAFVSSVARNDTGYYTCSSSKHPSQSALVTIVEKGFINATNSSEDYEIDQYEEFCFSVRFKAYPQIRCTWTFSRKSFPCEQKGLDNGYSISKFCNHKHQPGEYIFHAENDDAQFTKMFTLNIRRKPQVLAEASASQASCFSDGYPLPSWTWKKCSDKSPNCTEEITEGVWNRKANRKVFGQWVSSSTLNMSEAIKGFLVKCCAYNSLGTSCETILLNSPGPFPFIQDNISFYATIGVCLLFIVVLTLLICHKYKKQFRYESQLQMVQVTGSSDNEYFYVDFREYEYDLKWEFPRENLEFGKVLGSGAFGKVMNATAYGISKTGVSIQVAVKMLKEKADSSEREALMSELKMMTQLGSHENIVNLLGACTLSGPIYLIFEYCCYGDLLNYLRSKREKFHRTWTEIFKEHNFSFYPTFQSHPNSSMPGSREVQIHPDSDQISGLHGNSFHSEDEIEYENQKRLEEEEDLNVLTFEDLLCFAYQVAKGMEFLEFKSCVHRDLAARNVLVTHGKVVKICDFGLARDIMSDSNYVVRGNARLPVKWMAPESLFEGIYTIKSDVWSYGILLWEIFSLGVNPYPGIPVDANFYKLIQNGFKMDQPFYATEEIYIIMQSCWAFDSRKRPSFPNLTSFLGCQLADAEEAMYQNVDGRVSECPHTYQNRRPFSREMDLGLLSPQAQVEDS
c-Kit, sequence (P10721 26-976): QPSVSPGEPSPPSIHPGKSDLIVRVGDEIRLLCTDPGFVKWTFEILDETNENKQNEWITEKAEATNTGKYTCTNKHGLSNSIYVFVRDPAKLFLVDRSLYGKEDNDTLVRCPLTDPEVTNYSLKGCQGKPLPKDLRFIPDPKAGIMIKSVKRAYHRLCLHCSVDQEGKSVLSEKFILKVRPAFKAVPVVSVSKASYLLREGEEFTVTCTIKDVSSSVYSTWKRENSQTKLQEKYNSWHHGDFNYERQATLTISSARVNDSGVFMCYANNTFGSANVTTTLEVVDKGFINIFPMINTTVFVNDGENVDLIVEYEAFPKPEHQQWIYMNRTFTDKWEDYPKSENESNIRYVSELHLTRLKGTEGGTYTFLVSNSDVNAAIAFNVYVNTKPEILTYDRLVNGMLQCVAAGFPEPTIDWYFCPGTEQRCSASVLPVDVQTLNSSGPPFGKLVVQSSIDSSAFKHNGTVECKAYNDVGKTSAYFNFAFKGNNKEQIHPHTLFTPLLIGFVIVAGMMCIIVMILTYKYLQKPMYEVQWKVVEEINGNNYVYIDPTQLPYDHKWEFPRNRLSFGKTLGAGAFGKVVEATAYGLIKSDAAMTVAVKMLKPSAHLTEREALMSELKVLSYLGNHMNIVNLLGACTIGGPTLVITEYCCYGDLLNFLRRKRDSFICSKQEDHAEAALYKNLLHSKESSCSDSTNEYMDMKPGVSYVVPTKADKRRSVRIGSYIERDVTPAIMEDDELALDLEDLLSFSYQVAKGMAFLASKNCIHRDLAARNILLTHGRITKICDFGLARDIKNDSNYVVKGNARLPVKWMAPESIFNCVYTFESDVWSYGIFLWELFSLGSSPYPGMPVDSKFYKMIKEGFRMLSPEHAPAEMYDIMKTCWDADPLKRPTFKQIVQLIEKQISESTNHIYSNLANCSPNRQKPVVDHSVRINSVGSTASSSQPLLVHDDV
PDGFRβ, sequence (P09619 33-1106): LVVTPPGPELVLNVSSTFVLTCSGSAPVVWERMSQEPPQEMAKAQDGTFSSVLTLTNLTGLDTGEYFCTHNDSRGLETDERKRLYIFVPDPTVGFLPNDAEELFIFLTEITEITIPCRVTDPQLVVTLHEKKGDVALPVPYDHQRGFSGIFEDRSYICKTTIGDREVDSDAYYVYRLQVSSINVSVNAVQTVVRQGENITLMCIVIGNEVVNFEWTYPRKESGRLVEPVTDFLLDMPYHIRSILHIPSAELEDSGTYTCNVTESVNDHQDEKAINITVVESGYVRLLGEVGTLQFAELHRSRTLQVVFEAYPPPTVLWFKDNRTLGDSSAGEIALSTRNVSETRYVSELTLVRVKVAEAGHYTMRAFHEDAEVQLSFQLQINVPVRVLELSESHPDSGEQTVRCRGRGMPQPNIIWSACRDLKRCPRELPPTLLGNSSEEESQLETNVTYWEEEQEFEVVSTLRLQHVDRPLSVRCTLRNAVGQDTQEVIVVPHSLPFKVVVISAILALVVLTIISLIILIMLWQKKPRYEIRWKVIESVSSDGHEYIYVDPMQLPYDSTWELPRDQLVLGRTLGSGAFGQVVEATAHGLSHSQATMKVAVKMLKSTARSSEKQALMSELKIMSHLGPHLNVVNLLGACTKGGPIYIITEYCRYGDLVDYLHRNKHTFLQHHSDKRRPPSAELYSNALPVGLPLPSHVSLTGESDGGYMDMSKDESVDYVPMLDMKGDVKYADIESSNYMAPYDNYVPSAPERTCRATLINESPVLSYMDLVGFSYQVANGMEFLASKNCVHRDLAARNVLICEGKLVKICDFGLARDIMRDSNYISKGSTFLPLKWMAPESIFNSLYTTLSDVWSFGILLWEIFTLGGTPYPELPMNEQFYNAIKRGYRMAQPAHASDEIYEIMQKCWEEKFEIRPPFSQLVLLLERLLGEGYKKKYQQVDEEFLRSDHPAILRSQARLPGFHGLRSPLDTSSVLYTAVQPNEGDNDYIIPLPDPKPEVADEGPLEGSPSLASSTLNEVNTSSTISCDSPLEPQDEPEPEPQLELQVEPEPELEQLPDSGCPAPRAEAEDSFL

On to `Nc1ncc(C(=O)Nc2cc(C(=O)Nc3ccc(OC(F)F)cn3)c(F)cc2Cl)s1` [Example 208, 2-Amino-N-[2-chloro-5-[[5-(difluoromethoxy)pyridin-2-yl]carbamoyl]-4-fluorophenyl]-1,3-thiazole-5-carboxamide], for which the concentration for half-maximal inhibition (IC50) (as a rule, the concentration at which inhibition is half-maximal) is 100 to 1000 nM in experiment [1]; 100 to 1000 nM in experiment [2]; < 100 nM in experiment [3]; > 1000 nM in experiment [4]; < 100 nM in experiment [5] (setting [7]); > 1000 nM in experiment [6].
For `Nc1ncc(C(=O)Nc2cc(C(=O)Nc3ccc(OC4CC4)cn3)c(F)cc2Cl)s1` [Example 209, 2-Amino-N-[2-chloro-5-[(5-cyclopropyloxypyridin-2-yl)carbamoyl]-4-fluorophenyl]-1,3-thiazole-5-carboxamide], the IC50 in experiment [1] was 100 to 1000 nM; in experiment [2], 100 to 1000 nM; in experiment [3] it was < 100 nM; in experiment [4], > 1000 nM; in experiment [5] (setting [7]), < 100 nM; in experiment [6] it was > 1000 nM.
Turning to `Nc1ncc(C(=O)Nc2cc(C(=O)Nc3ccc(OC(F)(F)F)cn3)c(F)cc2F)s1` [Example 210, 2-Amino-N-[2,4-difluoro-5-[[5-(trifluoromethoxy)pyridin-2-yl]carbamoyl]phenyl]-1,3-thiazole-5-carboxamide], the concentration for half-maximal inhibition (IC50) in experiment [1] is 100 to 1000 nM; in experiment [2], 100 to 1000 nM; in experiment [3], < 100 nM; in experiment [4], > 1000 nM; in experiment [5] (setting [7]), < 100 nM; in experiment [6], > 1000 nM.
For `CCOc1ccc(NC(=O)c2cc(NC(=O)c3cnc(N)s3)c(F)cc2F)nc1` [Example 212, 2-Amino-N-[5-[(5-ethoxypyridin-2-yl)carbamoyl]-2,4-difluorophenyl]-1,3-thiazole-5-carboxamide], the IC50 in experiment [1] is > 1000 nM; in experiment [2], > 1000 nM; in experiment [3] it was < 100 nM; in experiment [4] it was > 1000 nM; in experiment [5] (setting [7]), < 100 nM; in experiment [6], > 1000 nM.
Consider `Nc1ncc(C(=O)Nc2cc(C(=O)Nc3ccc(OCC(F)F)cn3)c(F)cc2F)s1` [Example 213, 2-Amino-N-[5-[[5-(2,2-difluoroethoxy)pyridin-2-yl]carbamoyl]-2,4-difluorophenyl]-1,3-thiazole-5-carboxamide], for which the IC50 in experiment [1] is > 1000 nM; in experiment [2], > 1000 nM; in experiment [3], < 100 nM; in experiment [4], > 1000 nM; in experiment [5] (setting [7]), < 100 nM; in experiment [6], > 1000 nM.
For `COCc1ccc(NC(=O)c2cc(NC(=O)c3cnc(N)s3)c(F)cc2F)nc1` [Example 215, 2-Amino-N-[2,4-difluoro-5-[[5-(methoxymethyl)pyridin-2-yl]carbamoyl]phenyl]-1,3-thiazole-5-carboxamide], the concentration for half-maximal inhibition (IC50) in experiment [1] is > 1000 nM; in experiment [2] it was > 1000 nM; in experiment [3], 100 to 1000 nM; in experiment [4], > 1000 nM; in experiment [5] (setting [7]), > 1000 nM; in experiment [6], > 1000 nM.
On to `Nc1ncc(C(=O)Nc2cc(C(=O)Nc3ccc(C(F)(F)F)cn3)c(F)cc2F)s1` [Example 216, 2-Amino-N-[2,4-difluoro-5-[[5-(trifluoromethyl)pyridin-2-yl]carbamoyl]phenyl]-1,3-thiazole-5-carboxamide], for which the IC50 in experiment [1] was > 1000 nM; in experiment [2], 100 to 1000 nM; in experiment [3], < 100 nM; in experiment [4] it was > 1000 nM; in experiment [5] (setting [7]), < 100 nM; in experiment [6] it was > 1000 nM.
Turning to `Nc1ncc(C(=O)Nc2cc(C(=O)Nc3ccc(C(F)F)cn3)c(F)cc2F)s1` [Example 217, 2-Amino-N-[5-[[5-(difluoromethyl)pyridin-2-yl]carbamoyl]-2,4-difluorophenyl]-1,3-thiazole-5-carboxamide], the IC50 was > 1000 nM in experiment [1]; > 1000 nM in experiment [2]; < 100 nM in experiment [3]; > 1000 nM in experiment [4]; < 100 nM in experiment [5] (setting [7]); > 1000 nM in experiment [6].
In the case of `CC(C)Oc1ccc(NC(=O)c2cc(NC(=O)c3cnc(N)s3)c(F)cc2F)nc1` [Example 218, 2-Amino-N-[2,4-difluoro-5-[(5-propan-2-yloxypyridin-2-yl)carbamoyl]phenyl]-1,3-thiazole-5-carboxamide], the IC50 was > 1000 nM in experiment [1]; > 1000 nM in experiment [2]; < 100 nM in experiment [3]; > 1000 nM in experiment [4]; < 100 nM in experiment [5] (setting [7]); > 1000 nM in experiment [6].
For `Nc1ncc(C(=O)Nc2cc(C(=O)Nc3ccc(OC(F)F)cn3)c(F)cc2F)s1` [Example 219, 2-Amino-N-[5-[[5-(difluoromethoxy)pyridin-2-yl]carbamoyl]-2,4-difluorophenyl]-1,3-thiazole-5-carboxamide], the concentration for half-maximal inhibition (IC50) is > 1000 nM in experiment [1]; > 1000 nM in experiment [2]; < 100 nM in experiment [3]; > 1000 nM in experiment [4]; < 100 nM in experiment [5] (setting [7]); > 1000 nM in experiment [6].
As for `Nc1ncc(C(=O)Nc2cc(C(=O)Nc3ccc(OCC(F)(F)F)cn3)c(F)cc2F)s1` [Example 220, 2-Amino-N-[2,4-difluoro-5-[[5-(2,2,2-trifluoroethoxy)pyridin-2-yl]carbamoyl]phenyl]-1,3-thiazole-5-carboxamide], the IC50 is > 1000 nM in experiment [1]; > 1000 nM in experiment [2]; < 100 nM in experiment [3]; > 1000 nM in experiment [4]; < 100 nM in experiment [5] (setting [7]); > 1000 nM in experiment [6].
Regarding `Cc1cc(F)c(C(=O)Nc2ccc(C(F)F)cn2)cc1NC(=O)c1cnc(N)s1` [Example 226, 2-Amino-N-[5-[[5-(difluoromethyl)pyridin-2-yl]carbamoyl]-4-fluoro-2-methylphenyl]-1,3-thiazole-5-carboxamide], the IC50 in experiment [1] is 100 to 1000 nM; in experiment [2], 100 to 1000 nM; in experiment [3], < 100 nM; in experiment [4], > 1000 nM; in experiment [5] (setting [7]), < 100 nM; in experiment [6], > 1000 nM.
On to `Cc1cc(F)c(C(=O)Nc2ccc(OC3CC3)cc2)cc1NC(=O)c1cnc(N)s1` [Example 229, 2-Amino-N-[5-[(4-cyclopropyloxyphenyl)carbamoyl]-4-fluoro-2-methylphenyl]-1,3-thiazole-5-carboxamide], for which the IC50 in experiment [1] is < 100 nM; in experiment [2], 100 to 1000 nM; in experiment [3] it was < 100 nM; in experiment [4], > 1000 nM; in experiment [5] (setting [7]) it was < 100 nM; in experiment [6], < 100 nM.
Regarding `COc1ccc(NC(=O)c2cc(NC(=O)c3cnc(N)s3)c(C)cc2F)cc1` [Example 230, 2-Amino-N-[4-fluoro-5-[(4-methoxyphenyl)carbamoyl]-2-methylphenyl]-1,3-thiazole-5-carboxamide], the IC50 in experiment [1] was 100 to 1000 nM; in experiment [2] it was 100 to 1000 nM; in experiment [3], < 100 nM; in experiment [4] it was > 1000 nM; in experiment [5] (setting [7]), < 100 nM; in experiment [6] it was 100 to 1000 nM.
Consider `Cc1cc(F)c(C(=O)Nc2ccc(Cl)cc2)cc1NC(=O)c1cnc(N)s1` [Example 231, 2-Amino-N-[5-[(4-chlorophenyl)carbamoyl]-4-fluoro-2-methylphenyl]-1,3-thiazole-5-carboxamide], for which the IC50 is 100 to 1000 nM in experiment [1]; 100 to 1000 nM in experiment [2]; < 100 nM in experiment [3]; > 1000 nM in experiment [4]; < 100 nM in experiment [5] (setting [7]); 100 to 1000 nM in experiment [6].
Regarding `Cc1cc(F)c(C(=O)Nc2ccc(OC3CC3)cn2)cc1NC(=O)c1cnc(NC(=O)C2CC2)s1` [Example 238, 2-(Cyclopropanecarbonylamino)-NV-[5-[(5-cyclopropyloxypyridin-2-yl)carbamoyl]-4-fluoro-2-methylphenyl]-1,3-thiazole-5-carboxamide], the IC50 is < 100 nM in experiment [1]; 100 to 1000 nM in experiment [2]; < 100 nM in experiment [3]; > 1000 nM in experiment [4]; < 100 nM in experiment [5] (Phospho-KIT (Y703), M07e cells); 100 to 1000 nM in experiment [6].
Turning to `CNc1ncc(C(=O)Nc2cc(C(=O)Nc3ccc(OC4CC4)cn3)c(F)cc2C)s1` [Example 241, N-[5-[(5-cyclopropyloxypyridin-2-yl)carbamoyl]-4-fluoro-2-methylphenyl]-2-(methylamino)-1,3-thiazole-5-carboxamide], the concentration for half-maximal inhibition (IC50) is > 1000 nM in experiment [1]; > 1000 nM in experiment [2]; < 100 nM in experiment [3]; > 1000 nM in experiment [4]; < 100 nM in experiment [5] (setting [7]); > 1000 nM in experiment [6].
Take `COCC1(c2ccc(NC(=O)c3cc(NC(=O)c4cnc(N)s4)c(C)cc3F)nc2)CC1` [Example 244]: the IC50 in experiment [1] is 100 to 1000 nM; in experiment [2] it was 100 to 1000 nM; in experiment [3], < 100 nM; in experiment [4], > 1000 nM; in experiment [5] it was < 100 nM; in experiment [6], > 1000 nM.
